Test systems include SNB-19 CNS; K-562 leukemia; SK-MEL-5 melanoma; SR leukemia; SF-295 CNS; TK-10 renal; SW-620 colon; EKVX NSCLC; A498 renal; NCI-H460 lung.
Holding throughout (assay): inhibition of tumour cell growth, NCI panel, 48 h

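Protocol summary: plate cells (96-well), add compound at 5 concentrations, incubate 48 h, interpolate endpoints linearly. GI50: concentration for 50% inhibition of growth. TGI: concentration producing complete growth inhibition.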

For twelve molecules, GI50 and TGI results are on record in PubChem BioAssay (NCI).

Take `COC1=CC(c2ccc[nH]2)=N/C1=C\c1[nH]c(C)c(C(=O)CCCCC(=O)Nc2ccccc2)c1C`: the GI50 with SNB-19 CNS is 6.09 µM; with K-562 leukemia it was 1.43 µM; with SK-MEL-5 melanoma, 4.22 µM; in the experiment with SR leukemia, 0.636 µM; with SF-295 CNS it was 6.11 µM; in the experiment on TK-10 renal it was 1.66 µM. In addition, the GI50 in the experiment with SW-620 colon is 1.02 µM; in the experiment with EKVX NSCLC, 2.64 µM; in the experiment on A498 renal, 5.92 µM; in the experiment with NCI-H460 lung, 1.25 µM. The TGI in the experiment on SNB-19 CNS worked out at 20.8 µM; in the experiment with K-562 leukemia, 2.74 µM; in the experiment on SK-MEL-5 melanoma, 11.6 µM; in the experiment on SR leukemia it was 3.69 µM; with SF-295 CNS, 29.2 µM; in the experiment with TK-10 renal it was 3.38 µM. The TGI is 2.34 µM in the experiment with SW-620 colon, 19.8 µM with EKVX NSCLC, 20.6 µM with A498 renal and 2.63 µM in the experiment on NCI-H460 lung.
Consider `NS(=O)(=O)c1ccc(N2N=C3c4ccccc4CC3C2c2ccc(Cl)cc2)cc1` (centres undefined), for which the GI50 in the experiment on SNB-19 CNS was 17.3 µM; with K-562 leukemia, 10.6 µM; in the experiment with SK-MEL-5 melanoma, 2.3 µM; in the experiment with SR leukemia it was 2.19 µM; in the experiment with SF-295 CNS, 16.3 µM; in the experiment with TK-10 renal, 8.32 µM. In addition, the GI50 in the experiment with SW-620 colon was 4.71 µM; in the experiment with EKVX NSCLC, 14.1 µM; in the experiment on A498 renal, 2.55 µM; in the experiment with NCI-H460 lung, 19.7 µM. In addition, the TGI was over 100 µM with SNB-19 CNS; over 100 µM with K-562 leukemia; 5.85 µM in the experiment on SK-MEL-5 melanoma; over 100 µM in the experiment with SR leukemia; 34.2 µM with SF-295 CNS; 27.3 µM in the experiment with TK-10 renal. In addition, the TGI with SW-620 colon was 29.8 µM; in the experiment on EKVX NSCLC, 58.9 µM; with A498 renal, 6.6 µM; with NCI-H460 lung, 41.8 µM.
As for `CC(C)=CC(=O)Cc1nc2cc(C)c(C)cc2[nH]c1=O`, the TGI in the experiment on SNB-19 CNS, in the experiment with K-562 leukemia, in the experiment on SK-MEL-5 melanoma, in the experiment on SR leukemia, with SF-295 CNS and with TK-10 renal was over 100 µM each time. Moreover, the TGI in the experiment on SW-620 colon, in the experiment with EKVX NSCLC, in the experiment with A498 renal and in the experiment with NCI-H460 lung was over 100 µM throughout.
On to `N.N.NCCCCN.O=C([O-])C1(C(=O)[O-])CCC1.O=C([O-])C1(C(=O)[O-])CCC1.[Pt+4].[Pt+4]`, for which the GI50 is 25.9 µM in the experiment with SNB-19 CNS; over 100 µM in the experiment with K-562 leukemia; over 100 µM in the experiment on SK-MEL-5 melanoma; 34.6 µM in the experiment with SR leukemia; over 100 µM in the experiment on SF-295 CNS; over 100 µM with TK-10 renal. The GI50 was 27 µM in the experiment with SW-620 colon, over 100 µM in the experiment on EKVX NSCLC, over 100 µM in the experiment with A498 renal and 48.5 µM with NCI-H460 lung. The TGI was 65.6 µM in the experiment on SNB-19 CNS; over 100 µM with K-562 leukemia; over 100 µM in the experiment on SK-MEL-5 melanoma; over 100 µM with SR leukemia; over 100 µM in the experiment with SF-295 CNS; over 100 µM in the experiment with TK-10 renal. Moreover, the TGI with SW-620 colon is 93.9 µM; in the experiment on EKVX NSCLC, over 100 µM; in the experiment on A498 renal, over 100 µM; in the experiment on NCI-H460 lung, over 100 µM.
Regarding `COc1cc(/C=C2\COc3ccc(O)c(O)c3C2=O)cc(OC)c1`, the GI50 in the experiment with SNB-19 CNS is 2.17 µM; in the experiment on K-562 leukemia, 0.471 µM; in the experiment with SK-MEL-5 melanoma, 1.72 µM; with SR leukemia it was 0.852 µM; in the experiment with SF-295 CNS, 3.01 µM; with TK-10 renal, 2.26 µM. The GI50 with SW-620 colon is 1.22 µM; in the experiment with EKVX NSCLC it was 2.12 µM; in the experiment with A498 renal, 5.12 µM; with NCI-H460 lung, 1.81 µM. Also, the TGI with SNB-19 CNS is 7.47 µM; in the experiment on K-562 leukemia, over 100 µM; in the experiment with SK-MEL-5 melanoma, 3.13 µM; with SR leukemia, 12.5 µM; with SF-295 CNS, 9.09 µM; in the experiment on TK-10 renal, 6.89 µM. The TGI in the experiment on SW-620 colon stood at 4 µM; with EKVX NSCLC it was 5.53 µM; with A498 renal it was 19.1 µM; in the experiment with NCI-H460 lung, 4.7 µM.
Take `CC1=C(C(=O)NCc2ccccc2)C(c2ccccc2[N+](=O)[O-])C(C(=O)NCc2ccccc2)=C(C)N1`: the TGI is 27.5 µM in the experiment with SNB-19 CNS; 24.8 µM in the experiment on K-562 leukemia; 25.9 µM in the experiment on SK-MEL-5 melanoma; 35.8 µM with SR leukemia; 25.4 µM in the experiment on SF-295 CNS; 31.4 µM with TK-10 renal. Moreover, the TGI was determined as 28.1 µM in the experiment with SW-620 colon, 30.1 µM with EKVX NSCLC, 32.4 µM with A498 renal and 31.4 µM in the experiment on NCI-H460 lung.
For `c1ccc(CN(Cn2cccn2)Cn2cccn2)nc1`, the TGI in the experiment on SNB-19 CNS, in the experiment with K-562 leukemia, with SK-MEL-5 melanoma, in the experiment with SR leukemia, in the experiment with SF-295 CNS and with TK-10 renal was over 100 µM throughout. The TGI in the experiment with SW-620 colon, in the experiment on EKVX NSCLC, with A498 renal and with NCI-H460 lung was over 100 µM throughout.
`CCCCCCCC[N+](C)(CCCCCCCC)CCCCCCCC`: the GI50 with SNB-19 CNS is 0.398 µM; in the experiment with K-562 leukemia it was 0.108 µM; in the experiment on SK-MEL-5 melanoma, 0.178 µM; with SR leukemia, 0.165 µM; in the experiment with SF-295 CNS, 0.261 µM; with TK-10 renal it was 0.352 µM. The GI50 in the experiment with SW-620 colon is 0.338 µM; in the experiment on EKVX NSCLC it was 0.19 µM; in the experiment on A498 renal it was 0.563 µM; with NCI-H460 lung it was 0.43 µM. The TGI in the experiment on SNB-19 CNS came out at 1.54 µM; in the experiment with K-562 leukemia, 0.447 µM; in the experiment on SK-MEL-5 melanoma, 0.344 µM; in the experiment on SR leukemia it was 0.408 µM; in the experiment with SF-295 CNS, 0.826 µM; in the experiment on TK-10 renal it was 1.19 µM. The TGI in the experiment with SW-620 colon stood at 1.46 µM; in the experiment on EKVX NSCLC, 0.788 µM; in the experiment with A498 renal, 1.54 µM; in the experiment on NCI-H460 lung, 1.45 µM.
With `COC(=O)C1=C(C(=O)OC)C23C=C(C)C1C2=C(C)C1(CC1)[C@@](C)(O)C3=O` (some centres undefined), the GI50 in the experiment with SNB-19 CNS is 0.359 µM; in the experiment with K-562 leukemia, 6.07 µM; with SK-MEL-5 melanoma, 0.164 µM; in the experiment with SR leukemia, 3.64 µM; in the experiment on SF-295 CNS, 0.282 µM; in the experiment on TK-10 renal, 1.35 µM. Also, the GI50 was 9.14 µM in the experiment on SW-620 colon, 0.615 µM in the experiment with EKVX NSCLC, 0.188 µM with A498 renal and 0.203 µM in the experiment with NCI-H460 lung. In addition, the TGI in the experiment on SNB-19 CNS is 13.5 µM; with K-562 leukemia it was over 100 µM; in the experiment with SK-MEL-5 melanoma it was 0.314 µM; in the experiment with SR leukemia it was over 100 µM; in the experiment on TK-10 renal it was 11.3 µM; with SW-620 colon, 30.2 µM. The TGI with EKVX NSCLC was 5.42 µM; in the experiment on A498 renal, 0.49 µM; in the experiment with NCI-H460 lung, 1.19 µM.
With `C[C@H]1[C@H](C)CC[C@]2(C(=O)O)CC[C@]3(C)C(=CC[C@@H]4[C@@]5(C)C/C(=C/c6ccco6)C(=O)C(C)(C)[C@@H]5CC[C@]43C)[C@H]12`, the GI50 with SNB-19 CNS is 5.07 µM; with K-562 leukemia, 3.26 µM; with SK-MEL-5 melanoma, 4.44 µM; with SR leukemia, 4.12 µM; in the experiment with SF-295 CNS it was 3.72 µM; in the experiment with TK-10 renal it was 7.9 µM. In addition, the GI50 in the experiment on SW-620 colon is 4.19 µM; in the experiment on EKVX NSCLC, 3.69 µM; with A498 renal, 11.5 µM; in the experiment on NCI-H460 lung, 3.37 µM. Also, the TGI in the experiment with SNB-19 CNS was 23.2 µM; in the experiment with K-562 leukemia, over 100 µM; with SK-MEL-5 melanoma, 15.6 µM; in the experiment with SR leukemia, 50.8 µM; with SF-295 CNS it was 15.5 µM; with TK-10 renal, 26.3 µM. The TGI in the experiment on SW-620 colon stood at 19.5 µM; in the experiment with EKVX NSCLC, 15.4 µM; in the experiment with A498 renal, 33.8 µM; in the experiment with NCI-H460 lung it was 11.9 µM.
As to `NCc1nnn(Cc2ccccc2)c1N`, the TGI in the experiment with SNB-19 CNS, with K-562 leukemia, with SK-MEL-5 melanoma, in the experiment on SR leukemia, in the experiment with SF-295 CNS and in the experiment with TK-10 renal was over 100 µM throughout. Also, the TGI in the experiment on SW-620 colon, in the experiment with EKVX NSCLC, with A498 renal and with NCI-H460 lung was over 100 µM each time.
As to `COC1=CC(c2ccc[nH]2)=N/C1=C\c1ccc[nH]1`, the GI50 is 3.17 µM in the experiment with SNB-19 CNS; 0.273 µM in the experiment on K-562 leukemia; 0.064 µM with SK-MEL-5 melanoma; 0.0222 µM with SR leukemia; 0.58 µM in the experiment on SF-295 CNS; 0.232 µM in the experiment on TK-10 renal. For the same molecule, the GI50 was 0.0393 µM with SW-620 colon, 0.61 µM in the experiment with EKVX NSCLC, 3.65 µM with A498 renal and 0.0595 µM with NCI-H460 lung. Moreover, the TGI in the experiment on SNB-19 CNS was 18.4 µM; with K-562 leukemia, over 32.7 µM; in the experiment on SK-MEL-5 melanoma, 0.261 µM; in the experiment with SR leukemia, 1.31 µM; in the experiment with SF-295 CNS, 3.17 µM; with TK-10 renal it was 7.79 µM. The TGI with SW-620 colon was determined as 13.8 µM; with EKVX NSCLC, 16.4 µM; in the experiment with A498 renal it was 14.4 µM; in the experiment with NCI-H460 lung, 10.9 µM.
